Experimental data: patent publication EP0440324B1, “Substituted beta-diketones and their use in the treatment of inflammatory bowel disease” (ORION-YHTYMÄ OY, priority 1990, dated 1991)

Test system: TNB-induced chronic colitis
Experiment: TNB-induced chronic colitis in the rat (damage score of the colon)
Type: in vivo, Wistar rats
Settings: damage score of chronic inflammation induced by TNB, colons scored 96 h after TNB
Description: 20 mg of TNB (2,4,6-trinitrobenzenesulfonic acid) in 50 % ethanol was administered into the lumen of the colon via a rubber catheter inserted rectally to Wistar rats. The test compounds were given rectally 1 h prior and 24, 48, 72 and 95 h after TNB. The rats were sacrificed 96 h after TNB and their colons were scored according to occurence of ulcers and inflammation. The number of animals in each group was at least 8. 5-ASA (5-aminosalicylic acid), a clinically used drug for the treatment of IBD was used as a reference compound.

[1] = dose 30 mg/kg rectally 1 h prior and 24, 48, 72 and 95 h after TNB

Compound	% inhibition against control [1] [%]	other results
3-[3-(4-Methoxyphenyl)propenylene]-2,4-pentanedione [Example 11]	32	
3-[(3,5-Dinitro-4-hydroxyphenyl)methylene]-2,4-pentanedione. [Example 9]	40	
3-[(5-Nitrothienyl)methylene]-2,4-pentanedione [Example 13]	58	
Nc1ccc(O)c(C(=O)O)c1 [5-ASA, 5-aminosalicylic acid, reference compound]		inhibition in vivo at 100 mg/kg (Rattus norvegicus, dose 100 mg/kg rectally 1 h prior and 24, 48, 72 and 95 h after TNB, read-out: % inhibition against control): 24%
CC(=O)C(=Cc1ccc(C(=O)NCCc2ccccc2)cc1)C(C)=O [Test compound 9, 3-[(4-(N-phenethyl)carboxamido-phenyl)methylene]-2,4-pentanedione]		inhibition in vivo at 10 mg/kg (Rattus norvegicus, dose 10 mg/kg rectally 1 h prior and 24, 48, 72 and 95 h after TNB, read-out: % inhibition against control): 60%; inhibition in vivo at 30 mg/kg (Rattus norvegicus, dose 30 mg/kg rectally 1 h prior and 24, 48, 72 and 95 h after TNB, read-out: % inhibition against control): 48%
